The structures appear in SMILES notation.

The first assay relates to ABCA1.
Experiment: not given
Conditions: cited from earlier work.
Consider `O=C(O)C[C@H](O)C[C@H](O)/C=C/c1c(C2CC2)nc2ccccc2c1-c1ccc(F)cc1` [pitavastatin, (3R,5S,6E)-7-[2-cyclopropyl-4-(4-fluorophenyl)quinolin-3-yl]-3,5-dihydroxyhept-6-enoic acid], for which the “effect on expression of ABCA1” value is “increase expression of ABCA1”.

The next assay concerns ApoA-I mRNA. Nature of the assay: ApoA-I mRNA quantitation in HepG2 cells (real-time PCR). It is filed as cell-based. Also noted: key: Active: An active compound is one that causes a >15% increase in ApoA-I mRNA at a concentration less than or equal to 100 uM. As to conditions: concentration less than or equal to 100 uM, fold induction relative to DMSO control. Summed up:
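HepG2 cells were lysed after compound treatment and mRNA captured on oligo plates, then quantified by one-step real-time RT-PCR with primer-probe mixes. Ct values gave fold induction relative to the matching DMSO control. Active means >15% increase in ApoA-I mRNA at ≤100 uM.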
On the technique in general: Real-time PCR tracks product formation cycle by cycle.
`COc1cc(OC)c2c(=O)[nH]c(-c3ccc(NC(=O)CO)cc3)nc2c1` [N-(4-(5,7-dimethoxy-4-oxo-3,4-dihydroquinazolin-2-yl)phenyl)-2-hydroxyacetamide]: the “Effect on ApoA-I mRNA levels” value is given as “Active”. On the same count and under the same terms, the result for `COc1ccc2nc(-c3cc(C)c(OCCO)c(C)c3)[nH]c(=O)c2c1` [2-(4-(2-hydroxyethoxy)-3,5-dimethylphenyl)-6-methoxyquinazolin-4(3H)-one] reads “Active”. With `COc1cc(OC)c2c(=O)[nH]c(-c3cc(C)c(OCCNC(=O)N(C)C)c(C)c3)nc2c1` [3-(2-(4-(5,7-dimethoxy-4-oxo-3,4-dihydroquinazolin-2-yl)-2,6-dimethylphenoxy)ethyl)-1,1-dimethylurea], the “Effect on ApoA-I mRNA levels” value was “Active”. On the same count and under the same terms, the result for `COc1cc(OC)c2c(=O)[nH]c(-c3cc(C(C)(C)C)c(O)c(C(C)(C)C)c3)nc2c1` [2-(3,5-di-tert-butyl-4-hydroxyphenyl)-5,7-dimethoxyquinazolin-4(3H)-one] reads “Active”; that for `COc1cc(OC)c2c(=O)[nH]c(-c3cc(C)c(OCC(C)(C)O)c(C)c3)cc2c1` [3-(4-(2-hydroxy-2-methylpropoxy)-3,5-dimethylphenyl)-6,8-dimethoxyisoquinolin-1(2H)-one], “Active”; that for `COc1cc(OC)c2c(=O)[nH]c(-c3cccc(C)n3)nc2c1` [5,7-dimethoxy-2-(6-methylpyridin-2-yl)quinazolin-4(3H)-one], “Active”.

Turning to `COc1cc(OC)c2c(=O)[nH]c(-c3ccc(CN4CCOCC4)cc3)nc2c1` [5,7-dimethoxy-2-(4-(morpholinomethyl)phenyl)quinazolin-4(3H)-one], the “Effect on ApoA-I mRNA levels” value is given as “Active”. Still for that read-out and setting: under `COc1cc(OC)c2c(=O)[nH]c(-c3ccncc3)nc2c1` [5,7-dimethoxy-2-(pyridin-4-yl)quinazolin-4(3H)-one] stands “Active”; under `COc1cc(OC)c2c(=O)[nH]c(-c3cc(C)c(OCCN4CCN(C)CC4)c(C)c3)cc2c1` [3-(3,5-dimethyl-4-(2-(4-methylpiperazin-1-yl)ethoxy)phenyl)-6,8-dimethoxyisoquinolin-1(2H)-one], “Active”; under `COc1cc(OC)c2c(=O)[nH]c(-c3cc(C)c(OCc4ccccc4)c(C)c3)nc2c1` [2-(4-(benzyloxy)-3,5-dimethylphenyl)-5,7-dimethoxyquinazolin-4(3H)-one], “Active”. On the same count and under the same terms, under `COc1cc(O)c2c(=O)[nH]c(-c3cc(C)c(O)c(C)c3)nc2c1` [5-hydroxy-2-(4-hydroxy-3,5-dimethylphenyl)-7-methoxyquinazolin-4(3H)-one] stands “Active”; under `COc1cc(OC)c2c(=O)[nH]c(-c3cccc(-c4ccc(S(C)(=O)=O)cc4)n3)nc2c1` [5,7-dimethoxy-2-(6-(4-(methylsulfonyl)phenyl)pyridin-2-yl)quinazolin-4(3H)-one], “Active”.

For `COc1cc2nc(-c3cc(C)c(OCC(N)=O)c(C)c3)[nH]c(=O)c2cc1OC` [2-(4-(6,7-dimethoxy-4-oxo-3,4-dihydroquinazolin-2-yl)-2,6-dimethylphenoxy)acetamide], the “Effect on ApoA-I mRNA levels” value is recorded as “Active”.

With `CNC(=O)OCCOc1c(C)cc(-c2nc3cc(OC)cc(OC)c3c(=O)[nH]2)cc1C` [2-(4-(5,7-Dimethoxy-4-oxo-3,4-dihydroquinazolin-2-yl)-2,6-dimethyl-phenoxy)ethyl methylcarbamate], the “Effect on ApoA-I mRNA levels” value is on record as “Active”. Still for that read-out and setting: under `COc1cc2c(c(OC)c1)S(=O)(=O)NC(c1cc(C)c(O)c(C)c1)=C2` [6,8-dimethoxy-3-(4-hydroxy-3,5-dimethylphenyl)-2H-1,2-benzothiazine-1,1-dioxide] stands “Active”; under `COc1cc(OC)c2c(=O)[nH]c(-c3cc(C)c(OCCN4CCOCC4)c(C)c3)cc2n1` [7-(3,5-dimethyl-4-(2-morpholinoethoxy)phenyl)-2,4-dimethoxy-1,6-naphthyridin-5(6H)-one], “Active”.

With `COc1cc2cc(-c3cc(C)c(O)c(C)c3)[nH]c(=O)c2c(OC)c1CN1CCOCC1` [3-(4-hydroxy-3,5-dimethylphenyl)-6,8-dimethoxy-7-(morpholinomethyl)isoquinolin-1(2H)-one], the “Effect on ApoA-I mRNA levels” value is listed as “Active”. The same measure, in the same setting: the result for `COc1cc(OC)c2cnc(-c3cc(C)c(OCCO)c(C)c3)nc2c1` [2-(4-(5,7-dimethoxyquinazolin-2-yl)-2,6-dimethylphenoxy)ethanol] reads “Active”; that for `COc1cc2nc(-c3cc(C)c(O)c(C)c3)[nH]c(=O)c2c(OC)c1CN1CCOCC1` [2-(4-hydroxy-3,5-dimethylphenyl)-5,7-dimethoxy-6-(morpholinomethyl)quinazolin-4(3H)-one], “Active”; that for `COc1cc(OC)c2c(=O)[nH]c(-c3ccc(N(CCO)CCO)cc3)nc2n1` [2-(4-(bis(2-hydroxyethyl)amino)phenyl)-5,7-dimethoxypyrido[2,3-d]pyrimidin-4(3H)-one], “Active”. Same read-out and setting: under `COc1cc2nc(-c3ccc(N(CCO)CCO)cc3)[nH]c(=O)c2cc1OC` [2-(4-(bis(2-hydroxyethyl)amino)phenyl)-6,7-dimethoxyquinazolin-4(3H)-one] stands “Active”.

`O=c1[nH]c(-c2ccc3c(c2)OCCO3)nc2ccccc12` [2-(2,3-dihydrobenzo[b][1,4]dioxin-6-yl)quinazolin-4(3H)-one]: the “Effect on ApoA-I mRNA levels” value is on record as “Active”. Consider `COc1cc(OC)c2c(=O)[nH]c(-c3cc(C)c(OC)c(C)c3)nc2c1` [5,7-dimethoxy-2-(4-methoxy-3,5-dimethylphenyl)quinazolin-4(3H)-one], for which the “Effect on ApoA-I mRNA levels” value is given as “Active”.

Turning to `Cc1cc(-c2nc3ccc(Br)cc3c(=O)[nH]2)cc(C)c1O` [6-bromo-2-(4-hydroxy-3,5-dimethylphenyl)quinazolin-4(3H)-one], the “Effect on ApoA-I mRNA levels” value is given as “Active”.

`COc1cc(OC)c2c(=O)[nH]c(-c3ccc(N4CCOCC4)cc3)nc2c1` [5,7-dimethoxy-2-(4-morpholinophenyl)quinazolin-4(3H)-one]: the “Effect on ApoA-I mRNA levels” value is listed as “Active”. On to `COc1cc(OC)c2c(=O)[nH]c(-c3ccccc3Cl)nc2c1` [2-(2-chlorophenyl)-5,7-dimethoxyquinazolin-4(3H)-one], for which the “Effect on ApoA-I mRNA levels” value is listed as “Active”.

Consider `COc1cc(OC)c2c(=O)[nH]c(-c3cc(C)c(OCCNC(=O)c4ccccc4)c(C)c3)nc2c1` [N-(2-(4-(5,7-dimethoxy-4-oxo-3,4-dihydroquinazolin-2-yl)-2,6-dimethylphenoxy)ethyl)benzamide], for which the “Effect on ApoA-I mRNA levels” value was “Active”. Take `Cc1cc(-c2nc3ccc(CN4CCOCC4)cc3c(=O)[nH]2)cc(C)c1O` [2-(4-hydroxy-3,5-dimethylphenyl)-6-(morpholinomethyl)quinazolin-4(3H)-one]: the “Effect on ApoA-I mRNA levels” value was “Active”.

Consider `COc1cc(OC)c2c(=O)[nH]c(-c3ccc(OC)c(CN4CCOCC4)c3)nc2c1` [5,7-dimethoxy-2-(4-methoxy-3-(morpholinomethyl)phenyl)quinazolin-4(3H)-one], for which the “Effect on ApoA-I mRNA levels” value was “Active”. On the same count and under the same terms, the result for `COc1cc(OC)c2c(=O)[nH]c(-c3cccnc3Oc3ccc(Cl)cc3)nc2c1` [2-(2-(4-chlorophenoxy)pyridin-3-yl)-5,7-dimethoxyquinazolin-4(3H)-one] reads “Inactive”; that for `COc1cc(OC)c2c(=O)nc(-c3cc(C)c(O)c(C)c3)n(C)c2c1` [2-(4-hydroxy-3,5-dimethylphenyl)-5,7-dimethoxy-1-methylquinazolin-4(1H)-one], “Active”; that for `COc1cc(OC)c2c(=O)[nH]c(-c3ccc(O)c(OC)c3)nc2c1` [2-(4-hydroxy-3-methoxyphenyl)-5,7-dimethoxyquinazolin-4(3H)-one], “Active”. Still for that read-out and setting: the result for `COc1cc(OC)c2c(=O)[nH]c(-c3ccc(O)cc3)nc2c1` [2-(4-hydroxyphenyl)-5,7-dimethoxyquinazolin-4(3H)-one] reads “Active”; that for `CC(=O)Nc1ccc2nc(-c3cc(C)c(O)c(C)c3)[nH]c(=O)c2c1` [N-(2-(4-hydroxy-3,5-dimethylphenyl)-4-oxo-3,4-dihydroquinazolin-6-yl)acetamide], “Active”. As for `CN(C)c1ccc(-c2nc3ccccc3c(=O)[nH]2)c2ccccc12` [2-(4-(dimethylamino)naphthalene-1-yl)quinazolin-4(3H)-one], the “Effect on ApoA-I mRNA levels” value is “Active”. Turning to `CNC(=O)c1ccccc1C(=O)NCCOc1c(C)cc(-c2nc3cc(OC)cc(OC)c3c(=O)[nH]2)cc1C` [N1-(2-(4-(5,7-dimethoxy-4-oxo-3,4-dihydroquinazolin-2-yl)-2,6-dimethylphenoxy)ethyl)-N2-methylphthalamide], the “Effect on ApoA-I mRNA levels” value is listed as “Active”.

The values above are taken from patent US20160346291A1, “COMPOSITIONS AND THERAPEUTIC METHODS FOR ACCELERATED PLAQUE REGRESSION” (Resverlogix Corp, priority 2013, published 2016).
